The source of these data is US8501782B2, “Piperidinyl derivatives as modulators of chemokine receptor activity” (Bristol-Myers Squibb Company, priority 2007, dated 2013).

For this experiment, the target named is T1, CCR1 (Homo sapiens, UniProt P32246).
T1 construct: THP-1 monocytic leukemia cells are combined with 100 μg of LS WGA PS beads; endogenous in cells; host or cells: THP-1 human monocytic leukemia cells
T1 sequence (P32246 1-355): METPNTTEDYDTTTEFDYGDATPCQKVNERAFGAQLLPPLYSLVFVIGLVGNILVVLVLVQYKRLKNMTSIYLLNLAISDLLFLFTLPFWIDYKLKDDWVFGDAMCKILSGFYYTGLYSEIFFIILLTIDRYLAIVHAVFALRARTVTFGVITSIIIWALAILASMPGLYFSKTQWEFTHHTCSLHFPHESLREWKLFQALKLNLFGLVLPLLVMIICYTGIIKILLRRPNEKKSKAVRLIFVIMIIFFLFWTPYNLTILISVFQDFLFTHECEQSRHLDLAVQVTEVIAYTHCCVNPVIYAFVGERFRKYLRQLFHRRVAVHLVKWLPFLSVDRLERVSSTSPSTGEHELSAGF
Nature of the experiment: CCR1 ligand binding scintillation proximity assay (SPA): antagonism of MIP-1α binding to human THP-1 cells. The following applies: THP-1 monocytic leukemia cells, 0.1 nM [125I]-MIP-1α, 12 h at room temperature. On the procedure: Antagonism of MIP-1α Binding to Human THP-1 Cells
CCR1 ligand binding scintillation proximity assay (SPA) description:
For radioligand competition studies, a final concentration of 1×10^5 THP-1 monocytic leukemia cells are combined with 100 μg of LS WGA PS beads (Amersham, Cat.#: RPNQ 0260) in 40 μl of assay buffer (RPMI 1640 without phenol red, 50 mM HEPES, 5 mM MgCl2, 1 mM CaCl2, 0.1% BSA). The THP-1 cell/bead mixture is added to each well of a 384-well assay plate (PerkinElmer, Cat. #:6007899) containing test compound in 3-fold serial dilution, with final concentrations ranging from 8 μM to […]. A final concentration of 0.1 nM [^125I]-MIP-1α (PerkinElmer, Cat. #NEX298) in 20 μl assay buffer is added to the reaction. Sealed assay plates are incubated at room temperature for 12 h then analyzed by LEADseeker™.
The competition data of the test compound over a range of concentrations is plotted as percentage inhibition of radioligand specific bound in the absence of test compound (percent of total signal). After correcting for non-specific binding, IC50 values are determined. The IC50 value is defined as the concentration of test compound needed to reduce [^125I]-MIP-1α specific binding by 50% and is calculated using the four parameter logistic equation to fit the normalized data. The Ki values are determined by application of the Cheng-Prusoff equation to the IC50 values, where Ki=IC50/(1+ligand concentration/Kd) The Kd of [^125I]-MIP-1α in THP-1 cells is 0.1 nM. Each experiment is run in duplicate.
As a reminder, the IC50 is the concentration needed to halve the response being measured. Low values mean greater potency in that assay, high ones weaker potency in that assay. `CC(NC(=O)c1ccccc1)C(C)C(=O)N1CC[C@](O)(c2ccc(Cl)cc2)C(C)(C)C1` (single isomer, unassigned) [Example 72a] came in with an IC50 of 1190 nM. `CC(=O)N[C@@H]1CC[C@@H](C(=O)N[C@H](C)CC(=O)N2CC[C@](O)(c3ccc(Cl)cc3)C(C)(C)C2)C1` [Example 11, (1R,3R)-3-Acetamido-N—((R)-4-((S)-4-(4-chlorophenyl)-4-hydroxy-3,3-dimethylpiperidin-1-yl)-4-oxobutan-2-yl)cyclopentanecarboxamide] returned an IC50 of 43.9 nM.

For the molecule `CC1(C)CN(C(=O)CC2(NC(=O)c3ccccc3)CCOCC2)CC[C@]1(O)c1ccc(Cl)cc1` [Example 15, (S)—N-(4-(2-(4-(4-Chlorophenyl)-4-hydroxy-3,3-dimethylpiperidin-1-yl)-2-oxoethyl)tetrahydro-2H-pyran-4-yl)benzamide], the IC50 was 1180 nM. Next, `CC(CNC(=O)C1CCCC1)C(=O)N1CC[C@](O)(c2ccc(Cl)cc2)C(C)(C)C1` (stereo partly drawn) [Example 21]: 42 nM; `CC1(C)CN(C(=O)CCNC(=O)c2ccccc2)CC[C@]1(O)c1ccc(Cl)cc1` [Example 27]: 41.6 nM. `C[C@H](CC(=O)N1CC[C@](O)(c2ccc(Cl)cc2)C(C)(C)C1)NC(=O)[C@@H]1CC[C@@H](NC(=O)OC(C)(C)C)C1` [Example 28] yielded an IC50 of 46.7 nM. Next, `CC(C)(CC(=O)N1CC[C@](O)(c2ccc(Cl)cc2)C(C)(C)C1)NC(=O)C1CCCC1` [Example 35]: 1.7 nM; `Cc1cc(C)c(C(=O)NC(C)(C)CC(=O)N2CC[C@](O)(c3ccc(Cl)cc3)C(C)(C)C2)cn1` [Example 40]: 1.5 nM. Next, `CC(C)(CC(=O)N1CC[C@](O)(c2ccc(Cl)cc2)C(C)(C)C1)NC(=O)c1cccc(C(N)=O)c1` [Example 42]: 1.8 nM; `CC(C)(CC(=O)N1CC[C@](O)(c2ccc(Cl)cc2)C(C)(C)C1)NC(=O)c1cccc(-n2cnnn2)c1` [Example 50]: 2.2 nM; `CC(C)(CC(=O)N1CCC(O)(c2ccc(C#N)cc2)C(C)(C)C1)NC(=O)c1ccccc1` (stereo not drawn) [Example 60]: 45.3 nM. As to `C[C@H](NC(=O)NC(C)(C)CC(=O)N1CC[C@](O)(c2ccc(Cl)cc2)C(C)(C)C1)C(C)(C)O` [Example 63, 1-(4-((S)-4-(4-Chlorophenyl)-4-hydroxy-3,3-dimethylpiperidin-1-yl)-2-methyl-4-oxobutan-2-yl)-3-((S)-3-hydroxy-3-methylbutan-2-yl)urea], the IC50 is 1.9 nM. `CCOC(=O)c1cc(C2(O)CCN(C(=O)CC(C)(C)NC(=O)c3ccccc3)CC2(C)C)ccc1Cl` (stereo not drawn) [Example 78] registered an IC50 of 991 nM.

On to `CC(C)(CC(=O)N1CCC(O)(c2ncc(Cl)cc2Cl)C(C)(C)C1)NC(=O)c1ccccc1` (stereo not drawn) [Example 83], for which the IC50 came out at 788 nM.

With `CC(C)[C@@H](CNC(=O)Cc1ccccc1)C(=O)N1CC[C@](O)(c2ccc(Cl)cc2)C(C)(C)C1` [Example 89], the IC50 amounted to 809 nM.
